In patent US20090298055A1, “PRODUCTION OF PROTEINS” (Applied Research Systems ARS Holding S.A., priority 2004, published 2009):
“Also recorded” adds a separate entry of the source.

Columns and labels:
Format in all cases: cell-based, Chinese hamster
[1] = tested on: MTX-resistant CHO AA8 C4R0.15 and C5R0.15 cells; assay: Cell growth inhibition by lipophilic antifolates; settings: data not shown
Experimental: (§1) Cell growth inhibition by antifolates—For antifolate cell growth inhibition, cells (10^4/well) were seeded in 24-well plates in the respective growth medium (AA8 and derivatives in RPMI+10% FCS, and CHO-S cells in CD-CHO) containing various concentrations of MTX or the lipophilic antifolates, trimeterxate (Dr. David Fry, Warner-Lambert, Parke-Davis, Detroit, Mich.) and incubated for 3 days at 37° C. Thereafter, cells were detached by trypsinization and the number of viable cells was determined using trypan blue exclusion. The 50% inhibitory concentration (IC50) is defined as the drug concentration at which cell growth is inhibited by 50% relative to untreated controls.

CHO AA8 cells [2] = assay: Cell growth inhibition by lipophilic antifolates; settings: Cricetulus griseus; printed after 'CHO AA8 counterpart', data not shown
Experimental: as §1

CHO-S cells [3] = assay: F-MTX staining and competition with antifolates (flow cytometry); settings: 2 μM F-MTX, 3 hours competition
Experimental: (§2) F-MTX staining and competition with hydrophilic and lipophilic antifolates—Cells were seeded in 60-mm Petri dish and incubated for 8 hours at 37° C. in growth medium containing 2 μM fluorescein-MTX (F-MTX). Cells were then washed with PBS and subjected to competition with MTX and its lipophilic analogue TMQ. Following 3 hours of incubation, cells were detached by trypsinization, suspended in PBS containing 1% fetal calf serum and the residual green fluorescence per cell was determined using a flow cytometer (FACSCalibur, Becton-Dickinson) at an excitation of 488 nm and emission of 525 nm. Autofluorescence of unstained cells was routinely recorded.

CHO-S R0.15 cells = assay: as above; settings: for concentration for complete displacement of F-MTX: 2 μM F-MTX, 3 hours competition
Experimental: as §2

[4] = tested on: CHO-S R0.15 cells (RFC deficient); assay: Cell growth inhibition by antifolates (trypan blue exclusion, 3 days)
Experimental: as §1

CHO-S cells [5] = assay: as above; settings: Cricetulus griseus, 72 h, read-out: 50% inhibition of cell growth (IC50)
Experimental: as §1

[6] = tested on: CHO AA8 C4 R0.15 and C5 R0.15 cell lines; assay: [3H]-MTX transport assay; settings: 2 μM [3H]-MTX, 3 minutes
Experimental: (§3) [^3H]-MTX transport—In order to determine the ability of the antifolate-resistant clones to take up antifolates the influx rates of [^3H]-MTX were measured and compared to the control CHO AA8 cells. Cells (2×10^7) from the mid-log phase of growth were washed three times in transport buffer consisting of HEPES-buffered saline solution (HBSS, Rothem et al., 2002) and incubated for 3 minutes at 37° C. in the presence of HBSS (1 ml suspensions) containing 2 μM [^3H]-MTX. Transport controls contained a 500-fold excess (1 mM) of unlabeled MTX. The transport of [^3H]-MTX was stopped by the addition of 10 ml of ice-cold HBSS. The cell suspension was then centrifuged for 5 minutes at 4° C. using a centrifugation speed of 500×g, following which the cell pellet was washed twice with 10 ml of ice-cold transport buffer. The final cell pellet was suspended in water and processed for scintillation counting.

[7] = tested on: CHO-S-R0.04 cells (selected in 40 nM MTX); assay: [3H]-MTX transport assay; settings: 2 μM [3H]-MTX, 3 minutes
Experimental: as §3

[8] = tested on: CHO-S-R0.12 cells (selected in 120 nM MTX); assay: [3H]-MTX transport assay; settings: 2 μM [3H]-MTX, 3 minutes
Experimental: as §3

[9] = tested on: parental CHO AA8 C5 cells (RFC deficient); assay: MTX growth inhibition assay; settings: Cricetulus griseus, 72 h, 3 days
Experimental: as §1
(§4) Cell growth assays and inhibition by antifolates—as described in Example 2, hereinabove.

[10] = tested on: hRFC and hRFC-HA CHO AA8 C5R0.15 transfectants; assay: MTX growth inhibition assay
Experimental: as §1, §4

[11] = tested on: CHO AA8 C4R0.15 and CHO AA8 C5R0.15 cells; assay: F-MTX staining and competition with antifolates (flow cytometry); settings: CHO AA8 C4R0.15 and C5R0.15 cells
Experimental: as §2

CHO AA8 cells [12] = assay: as above
Experimental: as §2

| SMILES | hypersensitivity compared to CHO AA8 counterpart [1] | IC50 (CHO AA8 cells [2]) | concentration resulting in complete loss of F-MTX fluorescence (CHO-S cells [3]) | concentration for complete displacement of F-MTX (CHO-S R0.15 cells) | IC50 ([4]; Cricetulus griseus, 72 h, CHO-S R0.15 cells, read-out: 50% inhibition of cell growth (IC50)) | hypersensitivity of CHO-SR0.15 cells as compared with parental CHO cells ([4]; ratio of 50% inhibitory concentrations) | IC50 (CHO-S cells [5]) | loss of MTX uptake relative to control AA8 cells [6] | loss of control CHO-S transport activity [7] | loss of control CHO-S transport activity [8] | IC50 [9] | IC50 ([10]; Cricetulus griseus, CHO-AA8, 72 h, hRFC and hRFC-HA transfectants, 3 days) | increase in MTX sensitivity ([10]; RFC and RFC-HA transfectants vs C5R0.15 cells) | concentration required to completely displace F-MTX fluorescence [11] | concentration at which cells completely lost their F-MTX staining (CHO-S cells [3]) | concentration resulting in complete loss of F-MTX fluorescence (CHO AA8 cells [12]) | loss of cellular F-MTX staining (CHO-S R0.15 cells; competition with 100 nM MTX) |
| --- | --- | --- | --- | --- | --- | --- | --- | --- | --- | --- | --- | --- | --- | --- | --- | --- | --- |
| COc1cc(NCc2ccc3nc(N)nc(N)c3c2C)cc(OC)c1OC [TMQ, Trimetrexate] | > 5 fold | ~6 nM | 10 nM | 10 nM | 10 nM | 8 fold | ~40 nM | – | – | – | – | – | – | – | – | – | – |
| COc1ccc(OC)c(Cc2cnc3nc(N)nc(N)c3c2C)c1 [PTX, piritrexim] | > 3 fold | ~8 nM | – | – | – | – | – | – | – | – | – | – | – | – | – | – | – |
| CN(Cc1cnc2nc(N)nc(N)c2n1)c1ccc(C(=O)N[C@@H](CCC(=O)O)C(=O)O)cc1 [MTX, methotrexate] | – | – | – | 1000 nM | – | – | – | 90-91% | 92.5% | 96.4% | ~3000 nM | 27 to 29 nM | 100 fold | 3 µM | 100 nM | 30 nM | did not result in any loss; also recorded: Retention of F-MTX fluorescence |
